Our source for the Activity and inhibition in vivo values is ChEMBL document CHEMBL5260833, “An overview of quinazolines: Pharmacological significance and recent developments” (Eur J Med Chem, 2018).

For one test, the system named is Rattus norvegicus. Nature of the test: Anticonvulsant activity in ip dosed albino rat measured after 1 hrs. The format is functional.
Conditions: not given
On to `Cc1nc2ccc(Br)cc2c(=O)n1NC(=O)/C=C/c1ccc(N(C)C)cc1`, for which the Activity is on record as 50%.

`CC(=O)Nn1c(C)nc2ccccc2c1=O` showed an Activity of 50%.

Turning to `COc1ccc(C2CC(Nn3c(C)nc4ccccc4c3=O)=NO2)cc1` (stereo unspecified), the Activity turned out to be 50%.

`COc1ccc(/C=C/C(=O)Nn2c(C)nc3ccc(Br)cc3c2=O)cc1` had an Activity of 50%.

As to `Cc1nc2ccccc2c(=O)n1NC(=O)/C=C/c1ccccc1`, the Activity came out at 50%.

`Cc1nc2ccc(Br)cc2c(=O)n1NC(=O)/C=C/c1ccc(O)cc1` gave an Activity of 50%.

`COc1cc(C2CC(Nn3c(C)nc4ccc(Br)cc4c3=O)=NO2)ccc1O` (stereo unspecified) displayed an Activity of 50%.

For the compound `Cc1nc2ccc(Br)cc2c(=O)n1NC(=O)/C=C/c1ccccc1`, the Activity was 50%.

The compound `CC(=O)N1N=C(Nn2c(C)nc3ccc(Br)cc3c2=O)CC1c1ccccc1` (stereo unspecified) returned an Activity of 50%.

Regarding `Cc1nc2ccc(Br)cc2c(=O)n1NC1=NOC(c2ccccc2)C1` (stereo unspecified), the Activity turned out to be 50%.

Another test deals with Tobacco mosaic virus. Put plainly: Antiviral activity against TMV at 500 microg/ml. The format is functional. Conditions: dose 500 µg/ml.
On to `O=c1c2ccccc2nc(-c2ccncc2)n1/C=C/c1ccccc1`, for which the Activity is recorded as 54%.

Consider `COc1ccc(/C=C/n2c(C)nc3ccc(Br)cc3c2=O)c(OC)c1`, for which the Activity worked out at 54%.

On to `O=c1c2ccccc2nc(-c2ccncc2)n1/C=C/c1ccc(F)cc1`, for which the Activity came to 54%.

Compound `O=c1c2ccccc2nc(-c2ccccc2)n1/C=C/c1ccc(C(F)(F)F)cc1` yielded an Activity of 54%.

As to `O=c1c2ccccc2nc(-c2ccccc2)n1/C=C/c1c(Cl)cccc1Cl`, the Activity came out at 54%.

`O=c1c2ccccc2nc(-c2ccccc2)n1/C=C/c1cccc(C(F)(F)F)c1`: the Activity was 54%.

Compound `O=c1c2ccccc2nc(-c2ccccc2)n1/C=C/c1ccc(Cl)c([N+](=O)[O-])c1` registered an Activity of 54%.

For the compound `COc1cccc(/C=C/n2c(C)nc3ccc(Br)cc3c2=O)c1OC`, the Activity is 54%.

As for `Cc1nc2ccc(Br)cc2c(=O)n1/C=C/c1ccccc1C(F)(F)F`, the Activity is reported as 54%.

For the compound `Cc1nc2ccc(Br)cc2c(=O)n1/C=C/c1cccc([N+](=O)[O-])c1`, the Activity came out at 54%.

`Cc1nc2ccc(Br)cc2c(=O)n1/C=C/c1ccc(F)c(F)c1` had an Activity of 54%.

Regarding `O=c1c2ccccc2nc(-c2ccccc2)n1/C=C/c1cccc(Cl)c1`, the Activity was found to be 54%.

`Cc1nc2ccc(Br)cc2c(=O)n1/C=C/c1cccc(Cl)c1` showed an Activity of 54%.

`O=c1c2ccccc2nc(-c2ccncc2)n1/C=C/c1ccccc1Cl` returned an Activity of 54%.

Consider `Cc1nc2ccccc2c(=O)n1/C=C/c1cccc(Cl)c1Cl`, for which the Activity was found to be 54%.

`Cc1nc2ccc(Br)cc2c(=O)n1/C=C/c1ccc(F)cc1`: the Activity was found to be 54%.

The compound `Cc1nc2ccc(Br)cc2c(=O)n1/C=C/c1c(Cl)cccc1Cl` gave an Activity of 54%.

As for `O=c1c2ccccc2nc(-c2ccncc2)n1/C=C/c1cccc(Cl)c1Cl`, the Activity is recorded as 54%.

In the case of `Cc1nc2ccc(Br)cc2c(=O)n1/C=C/c1cccc(C(F)(F)F)c1F`, the Activity stood at 54%.

Take `Cc1nc2ccc(Br)cc2c(=O)n1/C=C/c1cc([N+](=O)[O-])ccc1Cl`: the Activity was found to be 54%.

Take `Cc1nc2ccc(Br)cc2c(=O)n1/C=C/c1cccc(F)c1`: the Activity was found to be 54%.

The compound `COc1ccc(OC)c(/C=C/n2c(C)nc3ccc(Br)cc3c2=O)c1` registered an Activity of 54%.

As to `Cc1nc2ccc(Br)cc2c(=O)n1/C=C/c1cc(O)cc(Cl)c1`, the Activity turned out to be 54%.

With `Cc1nc2ccc(Br)cc2c(=O)n1/C=C/c1ccccc1O`, the Activity is given as 54%.

In turn, `O=c1c2ccccc2nc(-c2ccccc2)n1/C=C/c1ccc(F)c(F)c1` gave an Activity of 54%.

In turn, `O=c1c2ccccc2nc(-c2ccccc2)n1/C=C/c1cccc(Cl)c1Cl` returned an Activity of 54%.

On to `Cc1nc2ccc(Br)cc2c(=O)n1/C=C/c1ccc(Cl)cc1Cl`, for which the Activity came out at 54%.

Take `O=c1c2ccccc2nc(-c2ccccc2)n1/C=C/c1cc(Cl)cc(Cl)c1`: the Activity is 54%.

Turning to `Cc1nc2ccc(Br)cc2c(=O)n1/C=C/c1ccccc1F`, the Activity is recorded as 54%.

For `Cc1nc2ccc(Br)cc2c(=O)n1/C=C/c1ccc(Cl)c([N+](=O)[O-])c1`, the Activity was 54%.

As to `COc1ccc(/C=C/n2c(C)nc3ccc(Br)cc3c2=O)cc1OC`, the Activity turned out to be 54%.

A further test concerns Rattus norvegicus. Nature of the test: Anticonvulsant activity in PTZ induced rat at 50 mg/kg, sc measured after 2 to 4 mins relative to control. The test is classed as functional. As to conditions: time 2-4 min.
In turn, `Cc1nc2ccc(I)cc2c(=O)n1NCC(=O)NNC(N)=S` showed an Activity of 20%.

`Cc1nc2ccccc2c(=O)n1NCc1nnc(NCC2C(=O)NC(=O)NC2=O)s1` had an Activity of 60%.

For `Cc1nc2ccc(Br)cc2c(=O)n1NCC(=O)NNC(=S)NCC1C(=O)NC(=S)NC1=O`, the Activity came out at 40%.

For the compound `Cc1nc2ccc(Br)cc2c(=O)n1NCc1nnc(NCC2C(=O)NC(=O)NC2=O)s1`, the Activity was found to be 60%.

`Cc1nc2ccc(Br)cc2c(=O)n1NCc1nnc(NCC2C(=O)NC(=S)NC2=O)s1` yielded an Activity of 60%.

Regarding `CCCC(CCC)C(=O)[O-].[Na+]` [VALPROATE SODIUM], the Activity was 80%.

As to `Cc1nc2c(Br)cc(Br)cc2c(=O)n1NCc1nnc(N)s1`, the Activity is reported as 40%.

In the case of `Cc1nc2ccc(I)cc2c(=O)n1NCc1nnc(NCC2C(=O)NC(=O)NC2=O)s1`, the Activity is recorded as 60%.

Take `Cc1nc2ccccc2c(=O)n1NCC(=O)NNC(=S)NCC1C(=O)NC(=S)NC1=O`: the Activity is 40%.

In turn, `Cc1nc2ccc(I)cc2c(=O)n1NCc1nnc(NCC2C(=O)NC(=S)NC2=O)s1` had an Activity of 60%.

In turn, `Cc1nc2ccccc2c(=O)n1NCc1nnc(N)s1` came in with an Activity of 40%.

In the case of `Cc1nc2c(Br)cc(Br)cc2c(=O)n1NCC(=O)NNC(N)=S`, the Activity worked out at 20%.

On to `Cc1nc2c(Br)cc(Br)cc2c(=O)n1NCc1nnc(NCC2C(=O)NC(=S)NC2=O)s1`, for which the Activity amounted to 60%.

In the case of `Cc1nc2ccc(Br)cc2c(=O)n1NCC(=O)NNC(=S)NCC1C(=O)NC(=O)NC1=O`, the Activity turned out to be 40%.

Consider `Cc1nc2ccc(I)cc2c(=O)n1NCC(=O)NNC(=S)NCC1C(=O)NC(=S)NC1=O`, for which the Activity amounted to 40%.

The subject of another test is Rattus norvegicus. Put plainly: Anticonvulsant activity in rat at 50 mg/kg, ip measured after 1 hrs by MES test relative to control.
Conditions: not given
The format is functional.
With `Cc1nc2ccc(I)cc2c(=O)n1NCC(=O)NNC(N)=S`, the Activity is 20%.

In turn, `Cc1nc2ccccc2c(=O)n1NCc1nnc(NCC2C(=O)NC(=O)NC2=O)s1` returned an Activity of 60%.

`Cc1nc2ccc(Br)cc2c(=O)n1NCC(=O)NNC(=S)NCC1C(=O)NC(=S)NC1=O` displayed an Activity of 40%.

As for `Cc1nc2ccc(Br)cc2c(=O)n1NCc1nnc(NCC2C(=O)NC(=O)NC2=O)s1`, the Activity was 60%.

The compound `Cc1nc2ccc(Br)cc2c(=O)n1NCc1nnc(NCC2C(=O)NC(=S)NC2=O)s1` had an Activity of 60%.

Consider `CCCC(CCC)C(=O)[O-].[Na+]` [VALPROATE SODIUM], for which the Activity is recorded as 80%.

In turn, `Cc1nc2c(Br)cc(Br)cc2c(=O)n1NCc1nnc(N)s1` registered an Activity of 40%.

For `Cc1nc2ccc(I)cc2c(=O)n1NCc1nnc(NCC2C(=O)NC(=O)NC2=O)s1`, the Activity is recorded as 60%.

For the compound `Cc1nc2ccccc2c(=O)n1NCC(=O)NNC(=S)NCC1C(=O)NC(=S)NC1=O`, the Activity was found to be 40%.

For the compound `Cc1nc2ccc(I)cc2c(=O)n1NCc1nnc(NCC2C(=O)NC(=S)NC2=O)s1`, the Activity is 60%.

Compound `Cc1nc2ccccc2c(=O)n1NCc1nnc(N)s1` came in with an Activity of 40%.

Compound `Cc1nc2c(Br)cc(Br)cc2c(=O)n1NCC(=O)NNC(N)=S` showed an Activity of 20%.

The compound `Cc1nc2c(Br)cc(Br)cc2c(=O)n1NCc1nnc(NCC2C(=O)NC(=S)NC2=O)s1` came in with an Activity of 60%.

In the case of `Cc1nc2ccc(Br)cc2c(=O)n1NCC(=O)NNC(=S)NCC1C(=O)NC(=O)NC1=O`, the Activity is on record as 40%.

Consider `Cc1nc2ccc(I)cc2c(=O)n1NCC(=O)NNC(=S)NCC1C(=O)NC(=S)NC1=O`, for which the Activity came to 40%.

Another test deals with Rattus norvegicus. Nature of the test: Anticonvulsant activity in albino rat at 30 mg/kg, ip measured after 1 hrs by MES test. The format is functional.
Conditions: not given
Compound `Cc1nc2ccccc2c(=O)n1NCc1nnc(N2C(=O)CSC2c2ccc(N(C)C)cc2)s1` (stereo unspecified) yielded an inhibition in vivo at 30 mg/kg of 60%.

For `COc1ccc(/C=N/c2nnc(CNn3c(C)nc4ccccc4c3=O)s2)cc1`, the inhibition in vivo at 30 mg/kg came to 50%.

Take `COc1ccc(/C=N/c2nnc(CNn3c(C)nc4ccc(Br)cc4c3=O)s2)cc1`: the inhibition in vivo at 30 mg/kg worked out at 50%.

`Cc1nc2ccccc2c(=O)n1NCc1nnc(N2C(=O)CSC2c2ccccc2)s1` (stereo unspecified) showed an inhibition in vivo at 30 mg/kg of 60%.

`COc1ccc(C2SCC(=O)N2c2nnc(CNn3c(C)nc4ccccc4c3=O)s2)cc1` (stereo unspecified): testing at 30 mg/kg gave an inhibition in vivo of 60%.

Take `Cc1nc2ccc(Br)cc2c(=O)n1NCc1nnc(/N=C/c2ccccc2)s1`: the inhibition in vivo at 30 mg/kg was 50%.

`COc1cccc(/C=N/c2nnc(CNn3c(C)nc4ccc(Br)cc4c3=O)s2)c1` registered an inhibition in vivo at 30 mg/kg of 50%.

Regarding `COc1cccc(C2SCC(=O)N2c2nnc(CNn3c(C)nc4ccc(Br)cc4c3=O)s2)c1` (stereo unspecified), the inhibition in vivo at 30 mg/kg is 60%.

`Cc1nc2ccc(Br)cc2c(=O)n1NCc1nnc(/N=C/c2ccc(O)cc2)s1` had an inhibition in vivo at 30 mg/kg of 50%.

`COc1cc(C2SCC(=O)N2c2nnc(CNn3c(C)nc4ccc(Br)cc4c3=O)s2)ccc1O` (stereo unspecified) returned an inhibition in vivo at 30 mg/kg of 60%.

For the compound `COc1cc(/C=N/c2nnc(CNn3c(C)nc4ccccc4c3=O)s2)ccc1O`, at 30 mg/kg the inhibition in vivo was 50%.

`COc1cccc(C2SCC(=O)N2c2nnc(CNn3c(C)nc4ccccc4c3=O)s2)c1` (stereo unspecified) showed an inhibition in vivo at 30 mg/kg of 60%.

As to `COc1cc(C2SCC(=O)N2c2nnc(CNn3c(C)nc4ccccc4c3=O)s2)ccc1O` (stereo unspecified), at 30 mg/kg the inhibition in vivo was 60%.

Compound `Cc1nc2ccc(Br)cc2c(=O)n1NCc1nnc(N2C(=O)CSC2c2ccc(N(C)C)cc2)s1` (stereo unspecified) gave an inhibition in vivo at 30 mg/kg of 60%.

Compound `Cc1nc2ccccc2c(=O)n1NCc1nnc(/N=C/c2ccccc2)s1` came in with an inhibition in vivo at 30 mg/kg of 50%.

The compound `Cc1nc2ccc(Br)cc2c(=O)n1NCc1nnc(/N=C/c2ccc(N(C)C)cc2)s1` came in with an inhibition in vivo at 30 mg/kg of 50%.

As for `Cc1nc2ccc(Br)cc2c(=O)n1NCc1nnc(N2C(=O)CSC2c2ccc(O)cc2)s1` (stereo unspecified), the inhibition in vivo at 30 mg/kg turned out to be 60%.

In the case of `Nc1nnc(-c2cccc(Cl)c2Cl)c(N)n1` [LAMOTRIGINE], testing at 30 mg/kg gave an inhibition in vivo of 90%.

Consider `COc1cc(/C=N/c2nnc(CNn3c(C)nc4ccc(Br)cc4c3=O)s2)ccc1O`, for which the inhibition in vivo at 30 mg/kg is 50%.

For the compound `Cc1nc2ccccc2c(=O)n1NCc1nnc(N2C(=O)CSC2c2ccc(O)cc2)s1` (stereo unspecified), at 30 mg/kg the inhibition in vivo was 60%.

In turn, `Cc1nc2ccc(Br)cc2c(=O)n1NCc1nnc(N2C(=O)CSC2c2ccccc2)s1` (stereo unspecified) had an inhibition in vivo at 30 mg/kg of 60%.

With `Cc1nc2ccccc2c(=O)n1NCc1nnc(/N=C/c2ccc(N(C)C)cc2)s1`, the inhibition in vivo at 30 mg/kg is 50%.

In the case of `COc1ccc(C2SCC(=O)N2c2nnc(CNn3c(C)nc4ccc(Br)cc4c3=O)s2)cc1` (stereo unspecified), the inhibition in vivo at 30 mg/kg worked out at 60%.

On to `Cc1nc2ccccc2c(=O)n1NCc1nnc(/N=C/c2ccc(O)cc2)s1`, for which testing at 30 mg/kg gave an inhibition in vivo of 50%.

In turn, `COc1cccc(/C=N/c2nnc(CNn3c(C)nc4ccccc4c3=O)s2)c1` returned an inhibition in vivo at 30 mg/kg of 50%.

As usually defined, the inhibition in vivo is the percentage by which the read-out fell short of the control. Low values mean a weak effect, high ones a strong effect.
